“And” between values parts separate entries of the source, which are not always exact repeats. Identical values can stand only once.

In experiment [1] the test system is Staphylococcus aureus (ATCC25923). Put plainly: Microdilution MIC assay (CLSI-based), S. aureus. The class given is cell-based. The note with it: Staphylococcus aureus, ATCC25923, 20 h, 20 hours incubation at 35-37° C., MHB; read-out: Minimum inhibitory concentration S. aureus ATCC25923. A digest of the protocol:
(§1)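 Broth microdilution per modified CLSI guidelines in Mueller Hinton broth, 200 μL, inoculum ca. 5×10^5 CFU/mL; compounds tested as salts, twofold dilutions from 0.2 mg/mL, in triplicate. MIC determined from OD at 620 nm after incubation.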

Experiment [2] concerns Enterococcus faecalis (ATCC29212). Put plainly: Microdilution MIC assay (CLSI-based), E. faecalis. The class given is cell-based. The note with it: Enterococcus faecalis, ATCC29212, 20 h, 20 hours incubation at 35-37° C., MHB; read-out: Minimum inhibitory concentration E. faecalis ATCC29212. The method in brief: as §1
Experiment [3] has as its system Escherichia coli (ATCC28922). Description: Microdilution MIC assay (CLSI-based), E. coli. The class given is cell-based. As to conditions: Escherichia coli, ATCC28922, 20 h, 20 hours incubation at 35-37° C., MHB; read-out: Minimum inhibitory concentration E. coli ATCC28922. A digest of the protocol:
as §1

Experiment [4] has as its system Pseudomonas aeruginosa (ATCC27853). Description: Microdilution MIC assay (CLSI-based), P. aeruginosa. The note with it: Pseudomonas aeruginosa, ATCC27853, 20 h, 20 hours incubation at 35-37° C., MHB; read-out: Minimum inhibitory concentration P. aeruginosa ATCC27853. The class given is cell-based. A digest of the protocol: as §1
Another experiment deals with CHO-K1 cells. Description: WST1 cytotoxicity test. The format is cell-based, Chinese hamster. The note with it: Cricetulus griseus, CHO-K1, 24 h, WST1, 24 hours at 37° C.; read-out: IC50 CHO. The method in brief:
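CHO-K1 cells pre-cultured 24 h, then exposed 24 h at 37 °C to increasing compound concentrations. Viability read as WST-1 formazan absorbance at 450 nm after 20 min; dose-response fitted by nonlinear regression.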

`COC(=O)[C@@H](Cc1ccccc1)NC(=O)CC[C@@H](C)[C@H]1CCC2C3C(CC[C@@]21C)[C@@]1(C)CC[C@H](NCCCNCCCN)C[C@H]1C[C@H]3O` (stereo partly drawn) [Compound S028, methyl ((4R)-4-((3S,5S,7R,10S,13R,17R)-3-((3-((3-aminopropyl)amino)propyl)amino)-7-hydroxy-10,13-dimethylhexadecahydro-1H-cyclopenta[a]phenanthren-17-yl)pentanoyl)-D-phenylalaninate]: the MIC was 12.5 µM and 8 µg/mL in experiment [1]; 12.5 µM and 8 µg/mL in experiment [2]; 6.25 µM and 4 µg/mL in experiment [3]; 50 µM and 32 µg/mL in experiment [4]. The IC50 in the experiment on CHO-K1 cells was 54.6 µM and 36.4 µg/mL.

`COC(=O)[C@H](Cc1ccccc1)NC(=O)CC[C@@H](C)[C@H]1CCC2C3C(CC[C@@]21C)[C@@]1(C)CC[C@H](NCCCNCCNCCCN)C[C@H]1C[C@H]3O` (stereo partly drawn) [Compound S029, methyl ((4R)-4-((3S,5S,7R,10S,13R,17R)-3-((3-((2-((3-aminopropyl)amino)ethyl)amino)propyl)amino)-7-hydroxy-10,13-dimethylhexadecahydro-1H-cyclopenta[a]phenanthren-17-yl)pentanoyl)-L-phenylalaninate]: the MIC is 12.5 µM and 8 µg/mL in experiment [1]; 12.5 µM and 8 µg/mL in experiment [2]; 50 µM and 32 µg/mL in experiment [3]; 50 µM and 32 µg/mL in experiment [4]. Besides, in the experiment with CHO-K1 cells, the IC50 was 47.8 µM and 33.9 µg/mL.

`COC(=O)[C@H](Cc1ccccc1)NC(=O)CC[C@@H](C)[C@H]1CCC2C3C(CC[C@@]21C)[C@@]1(C)CC[C@H](NCCCCN)C[C@H]1C[C@H]3O` (stereo partly drawn) [Compound S030, methyl ((4R)-4-((3S,5S,7R,10S,13R,17R)-3-((4-aminobutyl)amino)-7-hydroxy-10,13-dimethylhexadecahydro-1H-cyclopenta[a]phenanthren-17-yl)pentanoyl)-L-phenylalaninate]: the MIC was 100 µM and 64 µg/mL in experiment [1]; 200 µM and 124 µg/mL in experiment [2]; 50 µM and 32 µg/mL in experiment [3]; > 200 µM and > 124 µg/mL in experiment [4]. In the experiment with CHO-K1 cells, the IC50 was > 500 µM and > 311 µg/mL.

For the compound `COC(=O)[C@H](Cc1ccccc1)NC(=O)CC[C@@H](C)[C@H]1CCC2C3C(CC[C@@]21C)[C@@]1(C)CC[C@H](NCCCN(C)CCCN)C[C@H]1C[C@H]3O` (stereo partly drawn) [Compound S031, methyl ((4R)-4-((3S,5S,7R,10S,13R,17R)-3-((3-((3-aminopropyl)(methyl)amino)propyl)amino)-7-hydroxy-10,13-dimethylhexadecahydro-1H-cyclopenta[a]phenanthren-17-yl)pentanoyl)-L-phenylalaninate], the MIC in experiment [1] was 6.25 µM and 4 µg/mL; in experiment [2], 25 µM and 16 µg/mL; in experiment [3], 12.5 µM and 8 µg/mL; in experiment [4] it was 25 µM and 16 µg/mL. In addition, the IC50 in the experiment with CHO-K1 cells was 84.5 µM and 57.6 µg/mL.

In the case of `COC(=O)[C@H](C)NC(=O)CC[C@@H](C)[C@H]1CCC2C3C(CC[C@@]21C)[C@@]1(C)CC[C@H](NCCCNCCNCCCN)C[C@H]1C[C@H]3O` (stereo partly drawn) [Compound S034, methyl ((4R)-4-((3S,5S,7R,10S,13R,17R)-3-((3-((2-((3-aminopropyl)amino)ethyl)amino)propyl)amino)-7-hydroxy-10,13-dimethylhexadecahydro-1H-cyclopenta[a]phenanthren-17-yl)pentanoyl)-L-alaninate], the MIC in experiment [1] is 50 µM and 32 µg/mL; in experiment [2] it was 6.25 µM and 4 µg/mL; in experiment [3], 50 µM and 32 µg/mL; in experiment [4] it was 100 µM and 64 µg/mL. The IC50 with CHO-K1 cells was 266 µM and 168 µg/mL.

Turning to `COC(=O)[C@H](CC(C)C)NC(=O)CC[C@@H](C)[C@H]1CCC2C3C(CC[C@@]21C)[C@@]1(C)CC[C@H](NCCCNCCNCCCN)C[C@H]1C[C@H]3O` (stereo partly drawn) [Compound S035, methyl ((4R)-4-((3S,5S,7R,10S,13R,17R)-3-((3-((2-((3-aminopropyl)amino)ethyl)amino)propyl)amino)-7-hydroxy-10,13-dimethylhexadecahydro-1H-cyclopenta[a]phenanthren-17-yl)pentanoyl)-L-leucinate], the MIC in experiment [1] was 12.5 µM and 8 µg/mL; in experiment [2], 12.5 µM and 8 µg/mL; in experiment [3] it was 12.5 µM and 8 µg/mL; in experiment [4] it was 12.5 µM and 8 µg/mL. Also, in the experiment with CHO-K1 cells, the IC50 was 45.2 µM and 30.6 µg/mL.

Consider `COC(=O)[C@H](CC(C)C)NC(=O)CC[C@@H](C)[C@H]1CCC2C3C(CC[C@@]21C)[C@@]1(C)CC[C@H](NCCCNCCCCNCCCN)C[C@H]1C[C@H]3O` (stereo partly drawn) [Compound S036, methyl ((4R)-4-((3S,5S,7R,10S,13R,17R)-3-((3-((4-((3-aminopropyl)amino)butyl)amino)propyl)amino)-7-hydroxy-10,13-dimethylhexadecahydro-1H-cyclopenta[a]phenanthren-17-yl)pentanoyl)-L-leucinate], for which the MIC in experiment [1] is 50 µM and 32 µg/mL; in experiment [2] it was 6.25 µM and 4 µg/mL; in experiment [3] it was 6.25 µM and 4 µg/mL; in experiment [4] it was 12.5 µM and 8 µg/mL. The IC50 in the experiment with CHO-K1 cells was 50.5 µM and 35.6 µg/mL.

On to `COC(=O)[C@H](Cc1ccccc1)NC(=O)CC[C@@H](C)[C@H]1CCC2C3C(CC[C@@]21C)[C@@]1(C)CC[C@H](NCCCN(CCCN)CCCN)C[C@H]1C[C@H]3O` (stereo partly drawn) [Compound S037, methyl ((4R)-4-((3S,5S,7R,10S,13R,17R)-3-((3-(bis(3-aminopropyl)amino)propyl)amino)-7-hydroxy-10,13-dimethylhexadecahydro-1H-cyclopenta[a]phenanthren-17-yl)pentanoyl)-L-phenylalaninate], for which the MIC was 6.25 µM and 4 µg/mL in experiment [1]; 6.25 µM and 4 µg/mL in experiment [2]; 6.25 µM and 4 µg/mL in experiment [3]; 25 µM and 16 µg/mL in experiment [4]. Moreover, in the experiment with CHO-K1 cells, the IC50 is 127 µM and 91.7 µg/mL.

On to `COC(=O)[C@H](C)NC(=O)CC[C@@H](C)[C@H]1CCC2C3C(CC[C@@]21C)[C@@]1(C)CC[C@H](NCCCNCCCCNCCCN)C[C@H]1C[C@H]3O` (stereo partly drawn) [Compound S038, methyl ((4R)-4-((3S,5S,7R,10S,13R,17R)-3-((3-((4-((3-aminopropyl)amino)butyl)amino)propyl)amino)-7-hydroxy-10,13-dimethylhexadecahydro-1H-cyclopenta[a]phenanthren-17-yl)pentanoyl)-L-alaninate], for which the MIC in experiment [1] is 3.13 µM and 2 µg/mL; in experiment [2], 6.25 µM and 4 µg/mL; in experiment [3], 6.25 µM and 4 µg/mL; in experiment [4] it was 12.5 µM and 8 µg/mL. In the experiment with CHO-K1 cells, the IC50 was 45 µM and 29.8 µg/mL.

For `COC(=O)[C@H](Cc1ccc(O)cc1)NC(=O)CC[C@@H](C)[C@H]1CCC2C3C(CC[C@@]21C)[C@@]1(C)CC[C@H](NCCCNCCCN)C[C@H]1C[C@H]3O` (stereo partly drawn) [Compound S040, methyl ((4R)-4-((3S,5S,7R,10S,13R,17R)-3-((3-((3-aminopropyl)amino)propyl)amino)-7-hydroxy-10,13-dimethylhexadecahydro-1H-cyclopenta[a]phenanthren-17-yl)pentanoyl)-L-tyrosinate], the MIC in experiment [1] was 25 µM and 16 µg/mL; in experiment [2] it was 25 µM and 16 µg/mL; in experiment [3] it was 50 µM and 32 µg/mL; in experiment [4], 50 µM and 32 µg/mL. In addition, the IC50 in the experiment on CHO-K1 cells was 155 µM and 106 µg/mL.

For the compound `COC(=O)[C@@H](NC(=O)CC[C@@H](C)[C@H]1CCC2C3C(CC[C@@]21C)[C@@]1(C)CC[C@H](NCCCCN)C[C@H]1C[C@H]3O)C(C)C` (stereo partly drawn) [Compound S043, methyl ((4R)-4-((3S,5S,7R,10S,13R,17R)-3-((4-aminobutyl)amino)-7-hydroxy-10,13-dimethylhexadecahydro-1H-cyclopenta[a]phenanthren-17-yl)pentanoyl)-L-valinate], the MIC in experiment [1] is 25 µM and 16 µg/mL; in experiment [2], 25 µM and 16 µg/mL; in experiment [3] it was 50 µM and 32 µg/mL; in experiment [4], 200 µM and 128 µg/mL. Besides, the IC50 in the experiment with CHO-K1 cells is 107 µM and 61.9 µg/mL.

For `COC(=O)[C@H]1CCCN1C(=O)CC[C@@H](C)[C@H]1CCC2C3C(CC[C@@]21C)[C@@]1(C)CC[C@H](NCCCNCCCN)C[C@H]1C[C@H]3O` (stereo partly drawn) [Compound S045, methyl ((4R)-4-((3S,5S,7R,10S,13R,17R)-3-((3-((3-aminopropyl)amino)propyl)amino)-7-hydroxy-10,13-dimethylhexadecahydro-1H-cyclopenta[a]phenanthren-17-yl)pentanoyl)-D-prolinate], the MIC in experiment [1] is 2 µg/mL and 3.13 µM; in experiment [2], 4 µg/mL and 6.25 µM; in experiment [3], 4 µg/mL and 6.25 µM; in experiment [4], 16 µg/mL and 25 µM. For the same compound, the 50% inhibitory concentration (IC50) in the experiment on CHO-K1 cells was 7.77 µg/mL and 12.6 µM.

Values taken from patent publication US20260250312A1, “ANTIBACTERIAL COMPOUNDS ELIMINATING DORMANT BACTERIAL CELLS” (UNIVERSITÉ D'AIX-MARSEILLE, priority 2022, published 2026).
